This note sets out measurements from patent US20240300900A1, “HYDROPHILIC AZADIBENZOCYCLOOCTYNE DERIVATIVES AND METAL-FREE CLICK REACTIONS WITH THESE HYDROPHILIC AZADIBENZOCYCLOOCTYNE DERIVATIVES” (Roche Diagnostics Operations, Inc., priority 2021, published 2024).

The structures appear in SMILES notation.

Series [1] in a line: Hydrophobicity indicated by reverse phase HPLC (YMC-Triart C18). The format is physicochemical. Particulars: YMC-Triart C18, 0-100% MeCN in H2O, 0.1% TFA in 25 min; later retention = more hydrophobic. The text has this:
The other way round, an earlier retention corresponded to higher hydrophilie.

Series [2] is described as follows: Solubility experiments: successive mixing with water, visual inspection. The format is physicochemical. Particulars: sonicated 10 s. From the text: If solid compound was still visible, this was considered as not dissolved. If no solid compound was visible, this was considered as dissolved.
Where [3] appears, read: theoretical concentration 0.6 mM.
Where [4] appears, read: theoretical concentration 6.0 mM.
[5] abbreviates: theoretical concentration 12.4 mM.
[6] abbreviates: theoretical concentration 16.5 mM.
The mark [7] stands for this setting: theoretical concentration 515 mM.

As to `O=C(O)CCCNC(=O)CCCC(=O)N1Cc2cc(OC[C@@H](O)CO)ccc2C#Cc2ccc(OC[C@@H](O)CO)cc21` [Compound 7], the “Retention Time” value in series [1] amounted to 11.58 min.

Take `O=C(CCC(=O)N1Cc2ccccc2C#Cc2ccccc21)ON1C(=O)CCC1=O` [Compound 32]: the “dissolved in water (visual inspection)” value in series [2] (setting [3]), in series [2] (setting [4]), in series [2] (setting [5]), in series [2] (setting [6]) and in series [2] (setting [7]) was “no” throughout.

For the molecule `O=C(O)CCCCC(=O)N1Cc2ccccc2C#Cc2ccccc21` [Compound 31], the “dissolved in water (visual inspection)” value in series [2] (setting [3]), in series [2] (setting [4]), in series [2] (setting [5]), in series [2] (setting [6]) and in series [2] (setting [7]) was “no” throughout. The “Retention Time” value in series [1] is 15.18 min.

Turning to `O=C(CCCC(=O)N1Cc2cc(OC[C@@H](O)CO)ccc2C#Cc2ccc(OC[C@@H](O)CO)cc21)NCCCC(=O)ON1C(=O)CCC1=O` [Compound 8], the “dissolved in water (visual inspection)” value in series [2] (setting [3]) is “yes”; in series [2] (setting [4]), “yes”; in series [2] (setting [5]), “yes”; in series [2] (setting [6]), “no”; in series [2] (setting [7]), “no”.
